Measurements as given in patent US10087178B2, “Substituted spiropyrido[1,2-a]pyrazine derivative and medicinal use thereof as HIV integrase inhibitor” (priority 2012, dated 2018).
Counter-ions that a name gives are not always drawn.

Test system: HIV-1 NL4-3 strain
Assay: Evaluation of antiviral activity: acute infection system of MT-4 cell with HIV-1 NL4-3 strain
Format: cell-based
Details: Human immunodeficiency virus 1, NL43, MT4, 120 h, MT-4 cells infected with HIV-1 NL4-3 strain (MOI 0.05), cultured 5 days, Cell Titer-Glo; read-out: antiviral activity (EC50)

Point of comparison: `CCN1C[C@@]2(C[C@@H]2COC)n2cc(C(=O)NCc3cccc(Cl)c3F)c(=O)c(O)c2C1=O` [Example T19, (1S,2S)-N-(3-chloro-2-fluorobenzyl)-2′-ethyl-9′-hydroxy-2-(methoxymethyl)-1′,8′-dioxo-1′,2′,3′,8′-tetrahydrospiro[cyclopropane-1,4′-pyrido[1,2-a]pyrazine]-7′-carboxamide], EC50 3.8 nM. Against it:
- CCO[C@H]1C[C@]2(CN(C)C(=O)c3c(O)c(=O)c(C(=O)NCc4ccc(F)cc4F)cn32)C1 [Example S51, N-(2,4-difluorobenzyl)-cis-3-ethoxy-9′-hydroxy-2′-methyl-1′,8′-dioxo-1′,2′,3′,8′-tetrahydrospiro[cyclobutane-1,4′-pyrido[1,2-a]pyrazine]-7′-carboxamide hydrochloride] — 1.6-fold lower, 2.4 nM
- CO[C@H]1C[C@]2(Cn3cc(C(=O)NCc4ccc(F)cc4F)c(=O)c(O)c3C(=O)N2C(C)C)C1 [Example S53, N-(2,4-difluorobenzyl)-9′-hydroxy-2′-isopropyl-cis-3-methoxy-1′,8′-dioxo-1′,2′,4′,8′-tetrahydrospiro[cyclobutane-1,3′-pyrido[1,2-a]pyrazine]-7′-carboxamide hydrochloride] — 2.6-fold higher, 10 nM
- CC(C)N1C(=O)c2c(O)c(=O)c(C(=O)NCc3ccc(F)cc3F)cn2C[C@@]12C[C@@H]2CO [Example T42, (1S,2S)-N-(2,4-difluorobenzyl)-9′-hydroxy-2-(hydroxymethyl)-2′-isopropyl-1′,8′-dioxo-1′,2′,4′,8′-tetrahydrospiro[cyclopropane-1,3′-pyrido[1,2-a]pyrazine]-7′-carboxamide] — within 1.5-fold, 3.7 nM
- CC(C)N1C(=O)c2c(O)c(=O)c(C(=O)NCc3ccc(F)cc3F)cn2C[C@]12C[C@H](O)C2 [Example S55, N-(2,4-difluorobenzyl)-cis-3,9′-dihydroxy-2′-isopropyl-1′,8′-dioxo-1′,2′,4′,8′-tetrahydrospiro[cyclobutane-1,3′-pyrido[1,2-a]pyrazine]-7′-carboxamide hydrochloride] — 8.7-fold higher, 33 nM
- CN1C[C@]2(C[C@H](O)C2)n2cc(C(=O)NCc3cccc(Cl)c3F)c(=O)c(O)c2C1=O [Example S27, N-(3-chloro-2-fluorobenzyl)- cis-3,9′-dihydroxy-2′-methyl-1′,8′-dioxo-1′,2′,3′,8′-tetrahydrospiro[cyclobutane-1,4′-pyrido[1,2-a]pyrazine]-7′-carboxamide hydrochloride] — 3.7-fold higher, 14 nM
- COC[C@H]1C[C@]2(CN(C(C)C)C(=O)c3c(O)c(=O)c(C(=O)NCc4ccc(F)cc4F)cn32)C1 [Example S23, N-(2,4-difluorobenzyl)-9′-hydroxy-2′-isopropyl-cis-3-(methoxymethyl)-1′,8′-dioxo-1′,2′,3′,8′-tetrahydrospiro[cyclobutane-1,4′-pyrido[1,2-a]pyrazine]-7′-carboxamide hydrochloride] — 1.7-fold higher, 6.3 nM
- COC[C@H]1C[C@]2(CN(C)C(=O)c3c(OC(=O)C(C)(C)C)c(=O)c(C(=O)NCc4cccc(Cl)c4F)cn32)C1 [Example S71, 7′-(3-chloro-2-fluorobenzylcarbamoyl)-cis-3-(methoxymethyl)-2′-methyl-1′,8′-dioxo-1′,2′,3′,8′-tetrahydrospiro[cyclobutane-1,4′-pyrido[1,2-a]pyrazin]-9′-yl pivalate] — 2-fold lower, 1.9 nM
- CCN1C(=O)c2c(O)c(=O)c(C(=O)NCc3cccc(Cl)c3F)cn2C[C@]12C[C@H](CO)C2 [Example S60, N-(3-chloro-2-fluorobenzyl)-2′-ethyl-9′-hydroxy-cis-3-(hydroxymethyl)-1′,8′-dioxo-1′,2′,4′,8′-tetrahydrospiro[cyclobutane-1,3′-pyrido[1,2-a]pyrazine]-7′-carboxamide hydrochloride] — 3.4-fold higher, 13 nM

Same assay, conditions: Human immunodeficiency virus 1, NL43, MT4, 120 h, antiviral activity; MT-4 cells infected with HIV-1 NL4-3 (MOI 0.05), 5 days culture, Cell Titer-Glo luminescence

`CC(C)N1C[C@]2(C[C@H]2CS(C)(=O)=O)n2cc(C(=O)NCc3cccc(Cl)c3F)c(=O)c(O)c2C1=O` [Example 21, (1R,2R)—N-(3-chloro-2-fluorobenzyl)-9′-hydroxy-2′-isopropyl-2-(methylsulfonylmethyl)-1′,8′-dioxo-1′,2′,3′,8′-tetrahydrospiro[cyclopropane-1,4′-pyrido[1,2-a]pyrazine]-7′-carboxamide hydrochloride] was tested, and the EC50 was 48 nM.

Same assay, conditions: Human immunodeficiency virus 1, NL43, MT4, 120 h, antiviral activity; MT-4 cells infected with HIV-1 NL4-3 (MOI 0.05), 5 days culture, Cell Titer-Glo luminescence; read-out: EC50

Point of comparison: `CC(C)N1C[C@]2(C[C@H](OCc3ccccc3)C2)n2cc(C(=O)NCc3ccc(F)cc3F)c(=O)c(O)c2C1=O` [Example S2, cis-3-(benzyloxy)-N-(2,4-difluorobenzyl)-9′-hydroxy-2′-isopropyl-1′,8′-dioxo-1′,2′,3′,8′-tetrahydrospiro[cyclobutane-1,4′-pyrido[1,2-a]pyrazine]-7′-carboxamide hydrochloride], EC50 10 nM. Against it:
- CCN1C[C@]2(C[C@H](OCc3ccccc3)C2)n2cc(C(=O)NCc3ccc(F)cc3F)c(=O)c(O)c2C1=O [Example S16, cis-3-(benzyloxy)-N-(2,4-difluorobenzyl)-2′-ethyl-9′-hydroxy-1′,8′-dioxo-1′,2′,3′,8′-tetrahydrospiro[cyclobutane-1,4′-pyrido[1,2-a]pyrazine]-7′-carboxamide hydrochloride] — within 1.5-fold, 7.8 nM
- COC[C@H]1C[C@]12CN(C(C)C)C(=O)c1c(O)c(=O)c(C(=O)NCc3ccc(F)cc3F)cn12 [Example 14, (1R,2S)—N-(2,4-difluorobenzyl)-9′-hydroxy-2′-isopropyl-2-(methoxymethyl)-1′,8′-dioxo-1′,2′,3′,8′-tetrahydrospiro[cyclopropane-1,4′-pyrido[1,2-a]pyrazine]-7′-carboxamide] — within 1.5-fold, 9.1 nM
- CCN1C(=O)c2c(O)c(=O)c(C(=O)NCc3cccc(Cl)c3F)cn2C[C@@]12C[C@@H]2COC [Example 17, (1S,2S)—N-(3-chloro-2-fluorobenzyl)-2′-ethyl-9′-hydroxy-2-(methoxymethyl)-1′,8′-dioxo-1′,2′,4′,8′-tetrahydrospiro[cyclopropane-1,3′-pyrido[1,2-a]pyrazine]-7′-carboxamide] — 2.9-fold lower, 3.4 nM
- COC[C@@H]1C[C@@]12CN(C(C)C)C(=O)c1c(O)c(=O)c(C(=O)NCc3ccc(F)cc3F)cn12 [Example 16, (1S,2R)—N-(2,4-difluorobenzyl)-9′-hydroxy-2′-isopropyl-2-(methoxymethyl)-1′,8′-dioxo-1′,2′,3′,8′-tetrahydrospiro[cyclopropane-1,4′-pyrido[1,2-a]pyrazine]-7′-carboxamide] — 1.6-fold lower, 6.1 nM

Same assay, conditions: Human immunodeficiency virus 1, NL43, MT4, 120 h, read-out: antiviral activity (EC50), MT-4 cells infected with HIV-1 NL4-3 strain (MOI 0.05), cultured 5 days, Cell Titer-Glo

Point of comparison: `CCN1C[C@]2(C[C@H]2CO)n2cc(C(=O)NCc3cccc(Cl)c3F)c(=O)c(O)c2C1=O` [Example T17, (1R,2R)-N-(3-chloro-2-fluorobenzyl)-2′-ethyl-9′-hydroxy-2-(hydroxymethyl)-1′,8′-dioxo-1′,2′,3′,8′-tetrahydrospiro[cyclopropane-1,4′-pyrido[1,2-a]pyrazine]-7′-carboxamide hydrochloride], EC50 5.7 nM. Against it:
- COC[C@H]1C[C@@]12CN(C)C(=O)c1c(O)c(=O)c(C(=O)NCc3ccc(OC)c(Cl)c3F)cn12 [Example T22, (1S,2S)-N-(3-chloro-2-fluoro-4-methoxybenzyl)-9′-hydroxy-2-(methoxymethyl)-2′-methyl-1′,8′-dioxo-1′,2′,3′,8′-tetrahydrospiro[cyclopropane-1,4′-pyrido[1,2-a]pyrazine]-7′-carboxamide hydrochloride] — within 1.5-fold, 4.9 nM

Same assay, conditions: Human immunodeficiency virus 1, NL43, MT4, 120 h; read-out: antiviral activity (EC50)

In the case of `CN1C[C@]2(C[C@H](C(=O)O)C2)n2cc(C(=O)NCc3cccc(Cl)c3F)c(=O)c(O)c2C1=O` [Example 22, 7′-(3-chloro-2-fluorobenzylcarbamoyl)-9′-hydroxy-2′-methyl-1′,8′-dioxo-1′,2′,3′,8′-tetrahydrospiro[cyclobutane-1,4′-pyrido[1,2-a]pyrazine]-cis-3-carboxylic acid hydrochloride], the EC50 is reported as 400 nM.
